{"source": "paper PMC12656565", "about": "“In Vitro and Ultrastructural Evaluation of the Cytotoxic and Antileishmanial Activities of Thiosemicarbazone Compounds Against Promastigotes and Axenic Amastigotes of Leishmania infantum” (Tropical Medicine and Infectious Disease, 2025)", "key": {"[1]": {"tested_on": "L. infantum axenic amastigotes", "test": "Ultrastructural analysis (SEM/TEM) of axenic amastigote forms", "type": "cell-based, Leishmania infantum", "conditions": "1× and 2× IC50 (Amphotericin B 1× IC50), 72 h", "procedure": "Differentiation of L. infantum promastigote forms into axenic amastigote forms was carried out according to the protocol by Oliveira et al., with adaptations. Stationary-phase promastigotes (72 h) were cultured in modified Schneider’s Drosophila medium supplemented with 10% fetal bovine serum (FBS) at 26 °C. Cells were collected by centrifugation (3000× g for 10 min at 4 °C), washed three times with PBS (150 mM NaCl, 20 mM phosphate buffer, pH 7.2), and adjusted to 1 × 10^6 cells/mL. Differentiation was induced in acidified Schneider’s medium (pH 5.5), supplemented with 2.5% FBS, incubated at 32 °C for seven days.\nAxenic amastigotes were obtained from stationary-phase promastigotes of L. infantum following standard differentiation protocols. The cultures were maintained under controlled conditions and monitored daily by optical microscopy. Morphological observations confirmed the transition from elongated promastigotes to rounded amastigote-like forms with internalized or absent flagella. […] Cultures were regularly examined for microbial contamination, and no evidence of bacterial or fungal contamination was detected during the differentiation or experimental periods. Axenic amastigotes were exposed to compounds LT-73 and LT-75 at concentrations corresponding to the IC50 and 2× IC50, previously determined for promastigotes based on leishmanicidal activity, for analysis by scanning (SEM) and transmission electron microscopy (TEM). […]\nAfter this period, cells were washed with PBS (phosphate-buffered saline) and fixed in a solution containing 2.5% glutaraldehyde and 4% formaldehyde in 0.1 M phosphate buffer (pH 7.4) for 24 h at 4 °C. […] Sections were contrasted with 2% uranyl acetate for 30 min and 2.5% lead citrate for 10 min, then analyzed using a Tecnai G2 Spirit TEM (FEI). […]\nAll images were acquired under standardized laboratory protocols. A minimum of 50 parasites per condition were analyzed by two blinded investigators and no visible precipitation or crystallization occurred during fixation."}, "[2]": {"tested_on": "Leishmania infantum promastigote forms (MHOM/BR/BH46)", "test": "In vitro leishmanicidal activity against promastigotes (Neubauer chamber counting)", "type": "cell-based", "conditions": "for SI (CC50/IC50): CC50 J774 macrophages / IC50 promastigotes; for IC50 / inhibition at 20 µM: Leishmania infantum; for IC50: 72 h, L. infantum promastigotes, linear regression; for inhibition at 20 µM: lowest concentration tested in the promastigote series (20–400 µM)", "procedure": "For this study, the Leishmania infantum strain MHOM/BR/BH46 was used. It was maintained by cryopreservation in liquid nitrogen, using a preservation solution containing 10% dimethyl sulfoxide (DMSO) and 90% fetal bovine serum (FBS). For the experiments, the strain was reactivated and maintained in continuous culture in modified Schneider’s Drosophila medium, supplemented with 10% heat-inactivated fetal bovine serum (FBS), at a temperature of 26 °C, with subcultures performed every 72 h. The promastigote form was used for the in vitro assays, with growth observed and monitored through parasite counting using a Neubauer chamber (iNCYTO CChip DHC-N01, Cheonan-Si, Republic of Korea).\nThe in vitro leishmanicidal activity of compounds LT-70, LT-73, LT-75, LT-89, and amphotericin B was determined as described by Aliança et al., with adaptations. Promastigote forms of L. infantum (MHOM/BR/BH46) were maintained in Schneider’s medium supplemented with 10% fetal bovine serum (FBS), incubated at 26 °C. For experiments, parasites were subcultured and grown for 72 h until reaching stationary phase. Subsequently, they were adjusted to a concentration of 1 × 10^6 parasites/mL. Cultures were then incubated in the presence of the tested compounds (20–400 µM) and Amphotericin B was tested from 0.01 to 1.0 µM in preliminary range-finding assays, confirming an IC50 of 0.04 µM, both prepared in DMSO (final DMSO concentration < 1%), as well as a control containing only the diluent. Analyses were performed in technical triplicate and biological duplicate. Cultures were maintained at 26 °C for 72 h, with daily parasite counts performed using a Neubauer chamber. The median inhibitory concentration (IC50) was determined after 72 h by linear regression using SPSS 25.0 software for Mac. All assays were performed in 24-well flat-bottom plates (2 mL final volume per well), with parasite inoculum verified by Neubauer counting chamber. The compounds LT-73 and LT-75 were selected based on their best leishmanicidal performance and respective selectivity index (SI), calculated as the ratio between the cytotoxic concentration for 50% of host cells (CC50) and the IC50 obtained for parasites. […] IC50 and CC50 values were obtained by linear regression using […]. This method has been validated in our previous thiosemicarbazone publications. Each assay was conducted in triplicate across two independent biological experiments performed on separate days to ensure reproducibility and minimize batch effects. MTT was selected for consistency with the validated thiosemicarbazone protocol by Jacob et al., ensuring methodological coherence with prior data."}}, "data": [{"smiles": "C[C@@H]1[C@H](O)[C@@H](C)/C=C/C=C/C=C/C=C/C=C/C=C/C=C/[C@H](O[C@@H]2O[C@H](C)[C@@H](O)[C@H](N)[C@@H]2O)C[C@@H]2O[C@](O)(C[C@@H](O)C[C@@H](O)[C@H](O)CC[C@@H](O)C[C@@H](O)CC(=O)O[C@H]1C)C[C@H](O)[C@H]2C(=O)O", "note": "[Amphotericin B, reference compound]", "values": [{"measurement": "TEM ultrastructural alterations", "setting": "[1]", "result": "plasma membrane rupture, alterations in the kinetoplast, and mitochondrial swelling"}, {"measurement": "SI (CC50/IC50)", "setting": "[2]", "result": 350}, {"measurement": "IC50", "setting": "[2]", "result": 0.04, "unit": "µM"}, {"measurement": "inhibition at 20 µM", "setting": "[2]", "result": 100, "unit": "%"}]}, {"smiles": "N#Cc1ccc2[nH]cc(/C=N/NC(=S)Nc3ccc(Cl)cc3)c2c1", "note": "[LT-75]", "values": [{"measurement": "TEM ultrastructural alterations", "setting": "[1]", "result": "severe damage to the plasma membrane and cytoskeleton"}, {"measurement": "SI (CC50/IC50)", "setting": "[2]", "result": ">7.1"}, {"measurement": "IC50", "setting": "[2]", "result": "10 to 14", "unit": "µM"}, {"measurement": "inhibition at 20 µM", "setting": "[2]", "result": 100, "unit": "%"}]}, {"smiles": "S=C(N/N=C/c1c[nH]c2ncccc12)Nc1ccccc1", "note": "[LT-73]", "values": [{"measurement": "TEM ultrastructural alterations", "setting": "[1]", "result": "significant alterations in the plasma membrane and flagellar pocket, chromatin condensation, mitochondrial swelling, and an increased number of intracellular vacuoles"}, {"measurement": "SI (CC50/IC50)", "setting": "[2]", "result": ">5.8"}, {"measurement": "IC50", "setting": "[2]", "result": "10 to 14", "unit": "µM"}, {"measurement": "inhibition at 20 µM", "setting": "[2]", "result": 100, "unit": "%"}]}]}
